The record followed here is ChEMBL document CHEMBL1145433, “Nuttingins A-F and malonganenones D-H, tetraprenylated alkaloids from the Tanzanian gorgonian Euplexaura nuttingi” (2007).

Calls of active or inactive are those of the source. The rule behind the calls is not given here.

Usually inhibition stands for the drop in the measured response relative to a control, in per cent. Low values mean a weak effect, high ones a strong effect.

For one assay, the system named is HEK293. Briefly: Induction of apoptosis in 293 cells at 1.25 ug/mL. Type of assay: functional, cell-based. The note with it: Homo sapiens.
In assay [1] the test system is UT7. The experiment in a line: Growth inhibition of human UT7 cells at 0.4 ug/mL after 48 hrs by MTT assay. It is filed as functional. Conditions: UT7, 48 h.
The subject of assay [2] is K562. The experiment in a line: Growth inhibition of human K562 cells at 0.4 ug/mL after 48 hrs by MTT assay. Type of assay: functional. Conditions: K562, 48 h. (In general: Tetrazolium assays rely on reduction of a dye to a coloured formazan, in cell work by metabolically active cells.)
The subject of assay [3] is K562. Briefly: Growth inhibition of human K562 cells by MTT assay. It is filed as functional, cell-based.
The subject of assay [4] is UT7. Briefly: Growth inhibition of human UT7 cells by MTT assay. Type of assay: functional, cell-based.

As to `C/C(=C/C(=O)CC(C)C)CCC/C(C)=C/CC/C(C)=C/Cn1cnc2c1c(=O)n(C)c(=O)n2C`, in the assay with HEK293, the outcome was Active.
Take `C/C(=C\CC/C(C)=C/Cn1cnc2c1c(=O)n(C)c(=O)n2C)CC/C=C(\C)CC(=O)CC(C)C`: in the assay on HEK293, the outcome was Active.
In the case of `C/C(=C\CC/C(C)=C/Cn1cnc2c1c(=O)ncn2C)CC/C=C(\C)CC(=O)CC(C)C`, the result in the assay on HEK293 was Active.
As for `C/C(=C\CNC=O)CC/C=C(\C)CCC/C(C)=C/C(=O)CC(C)C`, in the assay with HEK293, the outcome was Active.
As to `C/C(=C\Cn1cnc2c1c(=O)ncn2C)CC/C=C(\C)CCC/C(C)=C/C(=O)CC(C)C`, the result with HEK293 was Active.
For `CNC(=O)c1c(N(C)C=O)ncn1C/C=C(\C)CC/C=C(\C)CC/C=C(\C)CC(=O)CC(C)C`, the outcome in the assay on HEK293 was Active.
In the case of `CNC(=O)c1c(N(C)C=O)ncn1C/C=C(\C)CC/C=C(\C)CCC/C(C)=C/C(=O)CC(C)C`, the result with HEK293 was Active.
For `C/C(=C/C(=O)CC(C)C)CCC/C(C)=C/CC/C(C)=C/Cn1cnc2c1C(=O)N(C)CN2C` [NUTTIGIN E], the result in the assay on HEK293 was Active. Further, the inhibition at 0.4 µg/mL came to 50% with UT7 [1] and 30% in the assay with K562 [2].
For the compound `C/C(=C\CC/C(C)=C/Cn1cnc2c1C(=O)N(C)CN2C)CC/C=C(\C)CC(=O)CC(C)C` [NUTTINGIN C], the result in the assay on HEK293 was Active. For the same compound, the Activity entry in the assay on K562 [3] and with UT7 [4] was “Dose-dependent effect” each time. The results for the inhibition at 0.4 µg/mL in the assay with UT7 [1] and in the assay with K562 [2] were 50% and 30%, respectively.
Consider `C/C(=C\Cn1cnc2c1C(=O)N(C)CN2C)CC/C=C(\C)CCC/C(C)=C/C(=O)CC(C)C` [NUTTINGIN D], for which the outcome with HEK293 was Active. The Activity result in the assay on K562 [3] and in the assay on UT7 [4] was “Dose-dependent effect” each time. Moreover, the inhibition at 0.4 µg/mL worked out at 50% in the assay on UT7 [1] and 30% with K562 [2].
